In patent US7875715B2, “Compounds for the treatment of multi-drug resistant bacterial infections” (AstraZeneca AB, priority 2005, dated 2011):
Converted amounts (≈) assume the structure as drawn. Where a name gives a salt, the structure may show the parent alone. Read-outs that look alike come from different tables or passages of the source.

How the values were obtained:
DNA gyrase = DNA gyrase (Escherichia coli, UniProt P0AES4+P0AES6); test: Supercoiling assay: inhibition of Escherichia coli DNA supercoiling activity; format: biochemical
Procedure: Compounds were tested for inhibition of Escherichia coli DNA supercoiling activity as follows. Assays were performed in polypropylene multiwell plates in 50 μl reactions containing 35 mM Tris-HCl (pH 7.5), 24 mM KCl, 4 mM MgCl2, 2 mM dithiothreitol, 1.8 mM spermidine, 5% (v/v) glycerol, 200 nM bovine serum albumin, 1.25% (v/v) DMSO, 3 mM ATP, 10 ng/ml relaxed pBR322 plasmid, 0.6 nM DNA gyrase, and test compound. Reactions were quenched after 1 hour by the addition of 10 μl of 30% (w/v) Ficoll-400, 10 mM EDTA, and 5% sodium dodecyl sulfate. Twenty-five μl of each sample was loaded onto a 0.8% (w/v) agarose gel and electrophoresed. The gel and gel buffer contained 1×TBE buffer (89 mM Tris base, 89 mM boric acid, and 2 mM EDTA at pH 8.3). After electrophoresis for 3 hours at 70V, the gel was stained with ethidium bromide and visualized by excitation with ultraviolet light. The fluorescence intensity of the most supercoiled plasmid band was used to measure gyrase activity. Compound potency was based IC50 measurements determined from reactions performed with eight 2-fold serial dilutions of each compound and a control without compound.

Streptococcus pneumoniae = test: Bacterial susceptibility testing in liquid media (MIC), S. pneumo; format: cell-based; conditions: MIC: lowest concentration reducing growth by 80% or more; 37° C., 24 hours
Procedure: (§1) Compounds were tested for antimicrobial activity by susceptibility testing in liquid media in a 96 well format. Compounds were dissolved in dimethylsulfoxide and tested in 10 doubling dilutions in the susceptibility assays. The organisms used in the assay were grown overnight on suitable agar media and then suspended in a liquid medium appropriate for the growth of the organism. The suspension was a 0.5 McFarland and a further 1 in 10 dilution was made into the same liquid medium to prepare the final organism suspension in 100 μL. Plates were incubated under appropriate conditions at 37° C. for 24 hours prior to reading. The Minimum Inhibitory Concentration (MIC) was determined as the lowest drug concentration able to reduce growth by 80% or more.
(§2) Compounds were evaluated against a panel of Gram-positive species, including Staphylococcus aureus, Streptococcus pneumoniae, Streptococcus pyogenes, and Enterococcus faecium. In addition, compounds were evaluated against a panel of Gram-negative species including Haemophilus influenzae, Escherichia coli and Moraxella catarrhalis.

Escherichia coli = test: Bacterial susceptibility testing in liquid media (MIC), E. coli; format: cell-based; conditions: lowest concentration reducing growth by 80% or more, 37° C., 24 hours
Procedure: as §1, §2

GyrB ATPase = GyrB ATPase (Escherichia coli, UniProt P0AES4+P0AES6); test: ATPase assay: inhibition of GyrB ATPase activity, ammonium molybdate/malachite green phosphate detection; format: biochemical, E. coli
Procedure: Compounds were tested for inhibition of GyrB ATPase activity using an ammonium molybdate/malachite green-based phosphate detection assay (Lanzetta, P. A., L. J. Alvarez, P. S. Reinach, and O. A. Candia, 1979, 100: 95-97). Assays were performed in multiwell plates in 100 μl reactions containing: 50 mM TRIS buffer pH 7.5, 75 mM ammonium acetate, 5.5 mM magnesium chloride, 0.5 mM ethylenediaminetetraacetic acid, 5% glycerol, 1 mM 1,4-dithio-DL-threitol, 200 nM bovine serum albumin, 16 μg/ml sheared salmon sperm DNA, 4 nM E. coli GyrA, 4 nM E. coli GyrB, 250 μM ATP, and compound in dimethylsulfoxide. Reactions were quenched with 150 μL of ammonium molybdate/malachite green detection reagent containing 1.2 mM malachite green hydrochloride, 8.5 mM ammonium molybdate tetrahydrate, and 1 M hydrochloric acid. Plates were read in an absorbance plate reader at 625 nm and percent inhibition values were calculated using dimethylsulfoxide (2%)-containing reactions as 0% inhibition and novobiocin-containing (2 μM) reactions as 100% inhibition controls. Compound potency was based on IC50 measurements determined from reactions performed in the presence of 10 different compound concentrations.

[1] = 4 nM E. coli GyrA, 4 nM E. coli GyrB, 250 μM ATP, read-out: gyrase ATPase (converted)

melting point | SMILES | S. pneumo (Streptococcus pneumoniae) | MIC (Escherichia coli) | other results
> 275 °C (dec.) | O=c1ccc2ccc(F)cc2n1CCN1CCC(NCc2cc3c(cn2)OCCO3)CC1 (as salt: HCl) [Example 10, 1-(2-{4-[(2,3-Dihydro[1,4]dioxino[2,3-c]pyridin-7-ylmethyl)amino]piperidin-1-yl}ethyl)-7-fluoroquinolin-2(1H)-one] |  |  | 
260 °C | COc1ccc2c(=O)ccn(CCN3CCC(NCc4cc5c(cn4)OCCO5)CC3)c2c1 (as salt: hydrochloride) [Example 2, 1-(2-{4-[(2,3-Dihydro[1,4]dioxino[2,3-c]pyridin-7-ylmethyl)amino]piperidin-1-yl}ethyl)-7-methoxyquinolin-4(1H)-one] |  |  | 
150 to 180 °C | O=C(O)[C@H]1CN(CCn2c(=O)ccc3c(F)cc(F)cc32)CC[C@H]1NC/C=C/c1cc(F)ccc1F (as salt: hydrochloride) [Example 13, (3S,4R)-1-[2-(5,7-Difluoro-2-oxoquinolin-1(2H)-yl)ethyl]-4-{[(2E)-3-(2,5-difluorophenyl)prop-2-en-1-yl]amino}piperidine-3-carboxylic acid] |  |  | 
> 190 °C | O=C(O)[C@@H]1CN(CCn2c(=O)ccc3c(F)cc(F)cc32)CC[C@H]1NCc1cc2c(cn1)OCCO2 (as salt: hydrochloride) [Example 16, (3R,4R)-1-[2-(5,7-Difluoro-2-oxoquinolin-1(2H)-yl)ethyl]-4-[(2,3-dihydro[1,4]dioxino[2,3-c]pyridin-7-ylmethyl)amino]piperidine-3-carboxylic acid] |  |  | 
> 205 °C | O=C(O)[C@@H]1CN(CCn2c(=O)ccc3c(F)cc(F)cc32)CC[C@H]1NC/C=C/c1cc(F)ccc1F (as salt: hydrochloride) [Example 17, (3R,4R)-1-[2-(5,7-Difluoro-2-oxoquinolin-1(2H)-yl)ethyl]-4-{[(2E)-3-(2,5-difluorophenyl)prop-2-en-1-yl]amino}piperidine-3-carboxylic acid] |  |  | 
158 to 170 °C | O=C1COc2ccc(CNC3CCN(CCn4c(=O)ccc5ccc(F)c(F)c54)CC3)nc2N1 (as salt: salt) [Example 7, 6-[({1-[2-(7,8-Difluoro-2-oxoquinolin-1(2H)-yl)ethyl]piperidin-4-yl}amino)methyl]-2H-pyrido[3,2-b][1,4]oxazin-3(4H)-one] |  |  | 
170 to 180 °C | O=C1COc2ccc(CNC3CCN(CCn4c(=O)ccc5c(F)cc(F)cc54)CC3)nc2N1 (as salt: salt) [Example 8, 6-[({1-[2-(5,7-Difluoro-2-oxoquinolin-1(2H)-yl)ethyl]piperidin-4-yl}amino)methyl]-2H-pyrido[3,2-b][1,4]oxazin-3(4H)-one] |  |  | 
150 to 155 °C | O=C1COc2ccc(CNC3CCN(CCn4c(=O)ccc5ccc(F)cc54)CC3)nc2N1 (as salt: salt) [Example 9, 6-[({1-[2-(7-Fluoro-2-oxoquinolin-1(2H)-yl)ethyl]piperidin-4-yl}amino)methyl]-2H-pyrido[3,2-b][1,4]oxazin-3(4H)-one] |  |  | 
130 °C | COC(=O)c1cc2ccc(OC)cc2n1CCN1CCC(NCc2cc3c(cn2)OCCO3)CC1 [Example 3, Methyl 1-(2-{4-[(2,3-dihydro[1,4]dioxino[2,3-c]pyridin-7-ylmethyl)amino]piperidin-1-yl}ethyl)-6-methoxy-1H-indole-2-carboxylate] |  |  | 
 | N#Cc1ccc2ccc(=O)n(CCN3CCC(NCc4cc5c(cn4)OCCO5)CC3)c2c1 [Example 5, 1-(2-{4-[(2,3-Dihydro[1,4]dioxino[2,3-c]pyridin-7-ylmethyl)amino]piperidin-1-yl}ethyl)-2-oxo-1,2-dihydroquinoline-7-carbonitrile] | 0.12 microgram/ml | 0.5 µg/mL (≈ 1.12 µM) | IC50 (DNA gyrase; 0.6 nM DNA gyrase, relaxed pBR322 plasmid, 1 hour, read-out: gyrase supercoiling (converted)): 114 nM; IC50 (GyrB ATPase; [1]): 157 nM
212 °C | N#Cc1ccc2ccc(=O)n(CCN3CCC(NCc4ccc5c(n4)NC(=O)CO5)CC3)c2c1 [Example 6, 2-Oxo-1-[2-(4-{[(3-oxo-3,4-dihydro-2H-pyrido[3,2-b][1,4]oxazin-6-yl)methyl]amino}piperidin-1-yl)ethyl]-1,2-dihydroquinoline-7-carbonitrile] |  |  | 
 | O=C1COc2ccc(F)cc2N1CCN1CCC(NCc2cc3c(cn2)OCCO3)CC1 [Example 26, 4-(2-{4-[(2,3-Dihydro[1,4]dioxino[2,3-c]pyridin-7-ylmethyl)amino]piperidin-1-yl}ethyl)-6-fluoro-2H-1,4-benzoxazin-3(4H)-one] | 0.25 microgram/ml | 1 µg/mL (≈ 2.26 µM) | IC50 (DNA gyrase): 949 nM
 | N#Cc1ccc2c(c1)N(CCN1CCC(NC/C=C/c3cc(F)ccc3F)CC1)C(=O)CO2 [Example 37, 4-[2-(4-{[(2E)-3-(2,5-Difluorophenyl)prop-2-en-1-yl]amino}piperidin-1-yl)ethyl]-3-oxo-3,4-dihydro-2H-1,4-benzoxazine-6-carbonitrile] | 0.06 microgram/ml | 0.25 µg/mL (≈ 0.552 µM) | IC50 (GyrB ATPase): 17.7 nM
 | O=C1COc2ccccc2N1CCN1CCC(NCc2cc3c(cn2)OCCO3)CC1 [Example 49, 4-(2-{4-[(2,3-Dihydro[1,4]dioxino[2,3-c]pyridin-7-ylmethyl)amino]piperidin-1-yl}ethyl)-2H-1,4-benzoxazin-3(4H)-one] | 4 microgram/ml | 8 µg/mL (≈ 18.8 µM) | IC50 (DNA gyrase): 7070 nM
 | Cn1c(=O)c2ccc(F)cc2n(CCN2CCC(NCc3ccc4c(n3)NC(=O)CO4)CC2)c1=O [Example 66, 7-Fluoro-3-methyl-1-[2-(4-{[(3-oxo-3,4-dihydro-2H-pyrido[3,2-b][1,4]oxazin-6-yl)methyl]amino}piperidin-1-yl)ethyl]quinazoline-2,4(1H,3H)-dione] | 8 microgram/ml | 4 µg/mL (≈ 8.29 µM) | IC50 (GyrB ATPase; [1]): 622 nM
